pEC50, pIC50: −log10 of the molar value. Peptide text beside a SMILES is read from it. * marks the point of attachment. X2 = CC(=O)N[C@@H]1[C@@H](O)[C@H](O[C@@H]2O[C@H](CO[C@]3(C(=O)O)C[C@H](O)[C@@H](NC(C)=O)[C@H]([C@H](O)[C@H](O)CO)O3)[C@H](O)[C@H](O)[C@H]2O)[C@@H](CO)O[C@H]1N*; X1 = CC(=O)N[C@@H]1[C@@H](O)[C@H](O[C@@H]2O[C@H](CO)[C@H](O)[C@H](O)[C@H]2O)[C@@H](CO)O[C@H]1N*; NH(β-GlcNAc) = CC(=O)N[C@@H]1[C@@H](O)[C@H](O)[C@@H](CO)O[C@H]1N*
Tests used:
GLP-1 receptor [1] = molecular target: T1, GLP-1 receptor (Homo sapiens, UniProt P43220); assay: Assay for production of cAMP
T1 sequence (P43220 24-463, species assumed): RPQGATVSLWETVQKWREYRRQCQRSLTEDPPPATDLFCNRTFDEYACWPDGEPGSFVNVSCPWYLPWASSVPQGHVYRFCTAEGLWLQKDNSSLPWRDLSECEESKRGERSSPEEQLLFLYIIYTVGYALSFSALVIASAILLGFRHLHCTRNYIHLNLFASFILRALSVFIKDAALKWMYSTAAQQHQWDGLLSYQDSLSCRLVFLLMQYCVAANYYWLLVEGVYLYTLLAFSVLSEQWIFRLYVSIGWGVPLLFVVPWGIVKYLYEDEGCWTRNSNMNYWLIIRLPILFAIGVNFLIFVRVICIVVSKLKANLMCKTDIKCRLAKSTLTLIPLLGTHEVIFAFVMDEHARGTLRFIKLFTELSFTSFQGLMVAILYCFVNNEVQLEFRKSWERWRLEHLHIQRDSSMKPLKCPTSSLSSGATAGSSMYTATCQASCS
Protocol: Assay for Production of cAMP
After stirring at room temperature for an hour, the cells were lysed with Triton X-100 (final concentration: 1%).
Quantity of cAMP was determined using cAMP Femtomolar Kit (CIS Bio International). The reaction solution (1 μL) was moved to a new 384-well plate and diluted by adding 9 μL of dilution buffer. Next, each 5 μL of cAMP-XL665 solution and anti-cAMP cryptate solution of the Kit was added, the mixture was incubated at room temperature for an hour, and time-resolved fluorescence was measured using RUBYstar (BMG LABTECH).

GLP-1 receptor [2] = molecular target: T1, GLP-1 receptor
Protocol: After being incubated at room temperature for 2 hours, the solution was filtered through a unifilter 96GF/C plate (Perkin-Elmer) pretreated with 1% polyethylenimine containing 0.5% BSA, washed with 25 mM HEPES buffer solution (pH 7.4) containing 0.5% BSA, and radioactivity remained on the filter was measured by a gamma counter (Top Counter; Perkin-Elmer).

SMILES: CC[C@H](C)[C@H](NC(=O)[C@H](Cc1ccccc1)NC(=O)[C@H](CS)NC(=O)[C@H](CCCNC(=N)N)NC(=O)[C@@H](NC(=O)[C@H](C)NC(=O)[C@H](CCC(=O)O)NC(=O)[C@H](CCC(=O)O)NC(=O)[C@H](CCC(=O)O)NC(=O)[C@H](CCSC)NC(=O)[C@H](CCC(N)=O)NC(=O)[C@H](CCCCN)NC(=O)[C@H](CO)NC(=O)[C@H](CC(C)C)NC(=O)[C@H](CC(=O)O)NC(=O)[C@H](CO)NC(=O)[C@@H](NC(=O)[C@H](Cc1ccccc1)NC(=O)[C@@H](NC(=O)CNC(=O)[C@H](CCC(=O)O)NC(=O)CNC(=O)[C@@H](N)Cc1c[nH]cn1)[C@@H](C)O)[C@@H](C)O)C(C)C)C(=O)N[C@@H](CCC(=O)O)C(=O)N[C@@H](Cc1c[nH]c2ccccc12)C(=O)N[C@@H](CC(C)C)C(=O)N[C@@H](CCCCN)C(=O)N[C@@H](CS)C(=O)NCC(=O)NCC(=O)N1CCC[C@H]1C(=O)N[C@@H](CO)C(=O)N[C@@H](CO)C(=O)NCC(=O)N[C@@H](CS)C(=O)N1CCC[C@H]1C(=O)N1CCC[C@H]1C(=O)N1CCC[C@H]1C(=O)N[C@@H](CO)C(=O)N[C@@H](CS)C(N)=O [EX21283540C]
- pEC50 (GLP-1 receptor [1]): 10.26

SMILES: CC[C@H](C)[C@H](NC(=O)[C@H](Cc1ccccc1)NC(=O)[C@H](CCC(=O)O)NC(=O)[C@H](CCCCN)NC(=O)[C@H](C)NC(=O)[C@H](C)NC(=O)[C@H](CCC(N)=O)NC(=O)CNC(=O)[C@H](CCC(=O)O)NC(=O)[C@H](CC(C)C)NC(=O)[C@H](Cc1ccc(O)cc1)NC(=O)[C@H](CO)NC(=O)[C@H](CO)NC(=O)[C@@H](NC(=O)[C@H](CC(=O)O)NC(=O)[C@H](CO)NC(=O)[C@@H](NC(=O)[C@H](Cc1ccccc1)NC(=O)[C@@H](NC(=O)CNC(=O)[C@H](CCC(=O)O)NC(=O)[C@H](CC(=O)N[C@@H]1O[C@H](CO)[C@@H](O[C@@H]2O[C@H](CO)[C@H](O)[C@H](O)[C@H]2O)[C@H](O)[C@H]1NC(C)=O)NC(=O)[C@@H](N)Cc1c[nH]cn1)[C@@H](C)O)[C@@H](C)O)C(C)C)C(=O)N[C@@H](C)C(=O)N[C@@H](Cc1c[nH]c2ccccc12)C(=O)N[C@@H](CC(C)C)C(=O)N[C@H](C(=O)N[C@@H](CCCCN)C(=O)NCC(=O)N[C@@H](CCCNC(=N)N)C(N)=O)C(C)C [GL08NL]
- pEC50 (GLP-1 receptor [1]): 6.55
- pIC50 (GLP-1 receptor [2]): < 7.00

SMILES: CC[C@H](C)[C@H](NC(=O)[C@H](Cc1ccccc1)NC(=O)[C@H](CCC(=O)O)NC(=O)[C@H](CCCCN)NC(=O)[C@H](C)NC(=O)[C@H](C)NC(=O)[C@H](CCC(N)=O)NC(=O)CNC(=O)[C@H](CCC(=O)O)NC(=O)[C@H](CC(C)C)NC(=O)[C@H](CC(=O)N[C@@H]1O[C@H](CO)[C@@H](O)[C@H](O)[C@H]1NC(C)=O)NC(=O)[C@H](CO)NC(=O)[C@H](CO)NC(=O)[C@@H](NC(=O)[C@H](CC(=O)O)NC(=O)[C@H](CO)NC(=O)[C@@H](NC(=O)[C@H](Cc1ccccc1)NC(=O)[C@@H](NC(=O)CNC(=O)[C@H](CCC(=O)O)NC(=O)[C@H](C)NC(=O)[C@@H](N)Cc1c[nH]cn1)[C@@H](C)O)[C@@H](C)O)C(C)C)C(=O)N[C@@H](C)C(=O)N[C@@H](Cc1c[nH]c2ccccc12)C(=O)N[C@@H](CC(C)C)C(=O)N[C@H](C(=O)N[C@@H](CCCCN)C(=O)NCC(=O)N[C@@H](CCCNC(=N)N)C(N)=O)C(C)C [GL19NG] (H-HAEGTFTSDVSSD(NH(β-GlcNAc))LEGQAAKEFIAWLVKGR-NH2)
- pEC50 (GLP-1 receptor [1]): 8.09
- pIC50 (GLP-1 receptor [2]): 7.39

SMILES: CC[C@H](C)[C@H](NC(=O)[C@H](Cc1ccccc1)NC(=O)[C@H](CCC(=O)O)NC(=O)[C@H](CCCCN)NC(=O)[C@H](C)NC(=O)[C@H](C)NC(=O)[C@H](CCC(N)=O)NC(=O)CNC(=O)[C@H](CCC(=O)O)NC(=O)[C@H](CC(C)C)NC(=O)[C@H](CC(=O)N[C@@H]1O[C@H](CO)[C@@H](O[C@@H]2O[C@H](CO)[C@H](O)[C@H](O)[C@H]2O)[C@H](O)[C@H]1NC(C)=O)NC(=O)[C@H](CO)NC(=O)[C@H](CO)NC(=O)[C@@H](NC(=O)[C@H](CC(=O)O)NC(=O)[C@H](CO)NC(=O)[C@@H](NC(=O)[C@H](Cc1ccccc1)NC(=O)[C@@H](NC(=O)CNC(=O)[C@H](CCC(=O)O)NC(=O)[C@H](C)NC(=O)[C@@H](N)Cc1c[nH]cn1)[C@@H](C)O)[C@@H](C)O)C(C)C)C(=O)N[C@@H](C)C(=O)N[C@@H](Cc1c[nH]c2ccccc12)C(=O)N[C@@H](CC(C)C)C(=O)N[C@H](C(=O)N[C@@H](CCCCN)C(=O)NCC(=O)N[C@@H](CCCNC(=N)N)C(N)=O)C(C)C [GL19NL] (H-HAEGTFTSDVSSD(X1)LEGQAAKEFIAWLVKGR-NH2; N-terminus assumed)
- pEC50 (GLP-1 receptor [1]): 8.08
- pIC50 (GLP-1 receptor [2]): 7.42

SMILES: CC[C@H](C)[C@H](NC(=O)[C@H](Cc1ccccc1)NC(=O)[C@H](CCC(=O)O)NC(=O)[C@H](CCCCN)NC(=O)[C@H](C)NC(=O)[C@H](C)NC(=O)[C@H](CCC(N)=O)NC(=O)CNC(=O)[C@H](CCC(=O)O)NC(=O)[C@H](CC(C)C)NC(=O)[C@H](CC(=O)N[C@@H]1O[C@H](CO)[C@@H](O[C@@H]2O[C@H](CO[C@]3(C(=O)O)C[C@H](O)[C@@H](NC(C)=O)[C@H]([C@H](O)[C@H](O)CO)O3)[C@H](O)[C@H](O)[C@H]2O)[C@H](O)[C@H]1NC(C)=O)NC(=O)[C@H](CO)NC(=O)[C@H](CO)NC(=O)[C@@H](NC(=O)[C@H](CC(=O)O)NC(=O)[C@H](CO)NC(=O)[C@@H](NC(=O)[C@H](Cc1ccccc1)NC(=O)[C@@H](NC(=O)CNC(=O)[C@H](CCC(=O)O)NC(=O)[C@H](C)NC(=O)[C@@H](N)Cc1c[nH]cn1)[C@@H](C)O)[C@@H](C)O)C(C)C)C(=O)N[C@@H](C)C(=O)N[C@@H](Cc1c[nH]c2ccccc12)C(=O)N[C@@H](CC(C)C)C(=O)N[C@H](C(=O)N[C@@H](CCCCN)C(=O)NCC(=O)N[C@@H](CCCNC(=N)N)C(N)=O)C(C)C [GL19NS6] (H-HAEGTFTSDVSSD(X2)LEGQAAKEFIAWLVKGR-NH2)
- pEC50 (GLP-1 receptor [1]): 7.30
- pIC50 (GLP-1 receptor [2]): < 7.00

SMILES: CC[C@H](C)[C@H](NC(=O)[C@H](Cc1ccccc1)NC(=O)[C@H](CCC(=O)O)NC(=O)[C@H](CC(N)=O)NC(=O)[C@H](C)NC(=O)[C@H](C)NC(=O)[C@H](CCC(N)=O)NC(=O)CNC(=O)[C@H](CCC(=O)O)NC(=O)[C@H](CC(C)C)NC(=O)[C@H](Cc1ccc(O)cc1)NC(=O)[C@H](CO)NC(=O)[C@H](CO)NC(=O)[C@@H](NC(=O)[C@H](CC(=O)O)NC(=O)[C@H](CO)NC(=O)[C@@H](NC(=O)[C@H](Cc1ccccc1)NC(=O)[C@@H](NC(=O)CNC(=O)[C@H](CCC(=O)O)NC(=O)[C@H](C)NC(=O)[C@@H](N)Cc1c[nH]cn1)[C@@H](C)O)[C@@H](C)O)C(C)C)C(=O)N[C@@H](C)C(=O)N[C@@H](Cc1c[nH]c2ccccc12)C(=O)N[C@@H](CC(C)C)C(=O)N[C@H](C(=O)N[C@@H](CCCCN)C(=O)NCC(=O)N[C@@H](CCCNC(=N)N)C(N)=O)C(C)C [GL26N]
- pEC50 (GLP-1 receptor [1]): 10.05

SMILES: CC[C@H](C)[C@H](NC(=O)[C@H](Cc1ccccc1)NC(=O)[C@H](CCC(=O)O)NC(=O)[C@H](CCCCN)NC(=O)[C@H](C)NC(=O)[C@H](C)NC(=O)[C@H](CCC(N)=O)NC(=O)CNC(=O)[C@H](CCC(=O)O)NC(=O)[C@H](CC(C)C)NC(=O)[C@H](Cc1ccc(O)cc1)NC(=O)[C@H](CO)NC(=O)[C@H](CO)NC(=O)[C@@H](NC(=O)[C@H](CC(=O)O)NC(=O)[C@H](CO)NC(=O)[C@@H](NC(=O)[C@H](Cc1ccccc1)NC(=O)[C@@H](NC(=O)CNC(=O)[C@H](CCC(=O)O)NC(=O)[C@H](C)NC(=O)[C@@H](N)Cc1c[nH]cn1)[C@@H](C)O)[C@@H](C)O)C(C)C)C(=O)N[C@@H](C)C(=O)N[C@@H](Cc1c[nH]c2ccccc12)C(=O)N[C@@H](CC(C)C)C(=O)N[C@H](C(=O)N[C@@H](CC(=O)N[C@@H]1O[C@H](CO)[C@@H](O[C@@H]2O[C@H](CO)[C@@H](O[C@@H]3O[C@H](CO[C@H]4O[C@H](CO)[C@@H](O)[C@H](O)[C@@H]4O[C@@H]4O[C@H](CO)[C@@H](O[C@@H]5O[C@H](CO[C@]6(C(=O)O)C[C@H](O)[C@@H](NC(C)=O)[C@H]([C@H](O)[C@H](O)CO)O6)[C@H](O)[C@H](O)[C@H]5O)[C@H](O)[C@H]4NC(C)=O)[C@@H](O)[C@H](O[C@H]4O[C@H](CO)[C@@H](O)[C@H](O)[C@@H]4O[C@@H]4O[C@H](CO)[C@@H](O[C@@H]5O[C@H](CO[C@]6(C(=O)O)C[C@H](O)[C@@H](NC(C)=O)[C@H]([C@H](O)[C@H](O)CO)O6)[C@H](O)[C@H](O)[C@H]5O)[C@H](O)[C@H]4NC(C)=O)[C@@H]3O)[C@H](O)[C@H]2NC(C)=O)[C@H](O)[C@H]1NC(C)=O)C(=O)NCC(=O)N[C@@H](CCCNC(=N)N)C(N)=O)C(C)C [GL34NE1]
- pIC50 (GLP-1 receptor [2]): 8.57

SMILES: CC[C@H](C)[C@H](NC(=O)[C@H](Cc1ccccc1)NC(=O)[C@H](CCC(=O)O)NC(=O)[C@H](CCCCN)NC(=O)[C@H](C)NC(=O)[C@H](C)NC(=O)[C@H](CCC(N)=O)NC(=O)CNC(=O)[C@H](CCC(=O)O)NC(=O)[C@H](CC(C)C)NC(=O)[C@H](Cc1ccc(O)cc1)NC(=O)[C@H](CO)NC(=O)[C@H](CO)NC(=O)[C@@H](NC(=O)[C@H](CC(=O)O)NC(=O)[C@H](CO)NC(=O)[C@@H](NC(=O)[C@H](Cc1ccccc1)NC(=O)[C@@H](NC(=O)CNC(=O)[C@H](CCC(=O)O)NC(=O)[C@H](C)NC(=O)[C@@H](N)Cc1c[nH]cn1)[C@@H](C)O)[C@@H](C)O)C(C)C)C(=O)N[C@@H](C)C(=O)N[C@@H](Cc1c[nH]c2ccccc12)C(=O)N[C@@H](CC(C)C)C(=O)N[C@H](C(=O)N[C@@H](CC(=O)N[C@@H]1O[C@H](CO)[C@@H](O[C@@H]2O[C@H](CO[C@]3(C(=O)O)C[C@H](O)[C@@H](NC(C)=O)[C@H]([C@H](O)[C@H](O)CO)O3)[C@H](O)[C@H](O)[C@H]2O)[C@H](O)[C@H]1NC(C)=O)C(=O)NCC(=O)N[C@@H](CCCNC(=N)N)C(N)=O)C(C)C [GL34NS6]
- pIC50 (GLP-1 receptor [2]): 9.15

From patent US20100016547A1, “Glycosilated Peptide and Medicine Comprising It as an Effective Ingredient” (priority 2005, published 2010)
